Assay results as given in ChEMBL document CHEMBL1909294, “Translating clinical findings into knowledge in drug safety evaluation--drug induced liver injury prediction system (DILIps)” (PLoS Comput Biol, 2011).

Experiments:
Hepatotoxicity [1] = system: Hepatotoxicity;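 for HepSE cholelithiasis: hepatic side effect score for cholelithiasis, drawn from the DILIps training data for predicting drug-induced liver injury; call rule not given here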;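 for HepSE cirrhosis: cirrhosis hepatic side effect score taken from the DILIps (drug-induced liver injury prediction) training set; call rule not given here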;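 for HepSE elevated liver function tests: hepatic side effect score for raised liver function tests, as recorded in the DILIps training set used for predicting drug-induced liver injury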;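 for HepSE hepatitis: Hepatitis-related hepatic side effect score taken from the training data of DILIps, a prediction system for drug-induced liver injury; call rule not given here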;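 for HepSE hepatomegaly: hepatic side effect score for hepatomegaly, taken from the training set of the DILIps drug-induced liver injury prediction system; call rule not given here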;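 for HepSE jaundice: Jaundice-related hepatic side-effect score drawn from the training data of the DILIps (drug-induced liver injury prediction system); call rule not given here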; for HepSE liver disease: call rule not given here
Hepatotoxicity [2] = system: Hepatotoxicity; remark: listed apart in the source;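 for HepSE cholelithiasis: hepatic side effect score for cholelithiasis, drawn from the DILIps training data for predicting drug-induced liver injury; call rule not given here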;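 for HepSE elevated liver function tests: hepatic side effect score for raised liver function tests, as recorded in the DILIps training set used for predicting drug-induced liver injury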;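 for HepSE hepatitis: Hepatitis-related hepatic side effect score taken from the training data of DILIps, a prediction system for drug-induced liver injury; call rule not given here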;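 for HepSE hepatomegaly: hepatic side effect score for hepatomegaly, taken from the training set of the DILIps drug-induced liver injury prediction system; call rule not given here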;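 for HepSE jaundice: Jaundice-related hepatic side-effect score drawn from the training data of the DILIps (drug-induced liver injury prediction system); call rule not given here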; for HepSE liver disease: call rule not given here
Hepatotoxicity [3] = system: Hepatotoxicity; remark: listed apart in the source;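 for HepSE cholelithiasis: hepatic side effect score for cholelithiasis, drawn from the DILIps training data for predicting drug-induced liver injury; call rule not given here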;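 for HepSE elevated liver function tests: hepatic side effect score for raised liver function tests, as recorded in the DILIps training set used for predicting drug-induced liver injury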;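 for HepSE hepatitis: Hepatitis-related hepatic side effect score taken from the training data of DILIps, a prediction system for drug-induced liver injury; call rule not given here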;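 for HepSE hepatomegaly: hepatic side effect score for hepatomegaly, taken from the training set of the DILIps drug-induced liver injury prediction system; call rule not given here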;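 for HepSE jaundice: Jaundice-related hepatic side-effect score drawn from the training data of the DILIps (drug-induced liver injury prediction system); call rule not given here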; for HepSE liver disease: call rule not given here
Hepatotoxicity [4] = system: Hepatotoxicity; remark: listed apart in the source;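 for HepSE cholelithiasis: hepatic side effect score for cholelithiasis, drawn from the DILIps training data for predicting drug-induced liver injury; call rule not given here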;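 for HepSE elevated liver function tests: hepatic side effect score for raised liver function tests, as recorded in the DILIps training set used for predicting drug-induced liver injury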;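 for HepSE hepatitis: Hepatitis-related hepatic side effect score taken from the training data of DILIps, a prediction system for drug-induced liver injury; call rule not given here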;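 for HepSE hepatomegaly: hepatic side effect score for hepatomegaly, taken from the training set of the DILIps drug-induced liver injury prediction system; call rule not given here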;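 for HepSE jaundice: Jaundice-related hepatic side-effect score drawn from the training data of the DILIps (drug-induced liver injury prediction system); call rule not given here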; for HepSE liver disease: call rule not given here
Hepatotoxicity [5] = system: Hepatotoxicity; remark: listed apart in the source; for HepSE liver disease: call rule not given here
Hepatotoxicity [6] = system: Hepatotoxicity; remark: listed apart in the source; for HepSE liver disease: call rule not given here
Hepatotoxicity [7] = system: Hepatotoxicity; remark: listed apart in the source
Hepatotoxicity [8] = system: Hepatotoxicity; remark: listed apart in the source
Hepatotoxicity [9] = system: Hepatotoxicity; remark: listed apart in the source
Hepatotoxicity [10] = system: Hepatotoxicity; remark: listed apart in the source
Hepatotoxicity [11] = system: Hepatotoxicity; remark: listed apart in the source
Hepatotoxicity [12] = system: Hepatotoxicity; remark: listed apart in the source
Hepatotoxicity [13] = system: Hepatotoxicity; remark: listed apart in the source
Hepatotoxicity [14] = system: Hepatotoxicity; remark: listed apart in the source

Compound | HepSE_elevated liver function tests (Hepatotoxicity [1]) | HepSE_liver disease (Hepatotoxicity [2]) | HepSE_hepatitis (Hepatotoxicity [3]) | HepSE_hepatomegaly (Hepatotoxicity [4]) | HepSE_jaundice (Hepatotoxicity [5]) | HepSE_cholelithiasis (Hepatotoxicity [6]) | HepSE_bilirubinemia (Hepatotoxicity [7]) | HepSE_liver fatty (Hepatotoxicity [8]) | HepSE_cirrhosis (Hepatotoxicity [9]) | HepSE_Combined Scores (Hepatotoxicity [10]) | HepSE_hepatic failure (Hepatotoxicity [11]) | HepSE_liver function tests abnormal (Hepatotoxicity [12]) | HepSE_cholecystitis (Hepatotoxicity [13]) | HepSE_hepatic necrosis (Hepatotoxicity [14])
Cn1c(=O)c2c(ncn2C)n(C)c1=O [CAFFEINE] | 0 | 0 | 0 | 0 | 0 | 0 | 0 | 0 | 0 | 0 | 0 | 0 | 0 | 0
CC(C)NCC(O)c1cc(O)cc(O)c1 (configuration not stated) [METAPROTERENOL] | 0 | 0 | 0 | 0 | 0 | 0 | 0 | 0 | 0 | 0 | 0 | 0 | 0 | 0
MANGAFODIPIR | 0 | 0 | 0 | 0 | 0 | 0 | 0 | 0 | 0 | 0 | 0 | 0 | 0 | 0
O=C(O)c1ccc(-n2nc(-c3ccccc3O)nc2-c2ccccc2O)cc1 [DEFERASIROX] | 0 | 0 | 1 | 0 | 0 | 1 | 0 | 0 | 1 | 5 | 1 | 1 | 0 | 0
CC(C)NCC(O)COc1ccc(COCCOC(C)C)cc1 (configuration not stated) [BISOPROLOL] | 0 | 0 | 0 | 0 | 0 | 0 | 0 | 0 | 0 | 0 | 0 | 0 | 0 | 0
C[C@@H]1C[C@H]2[C@H]3[C@H]([C@@H](O)C[C@]2(C)[C@@]1(O)C(=O)CO)[C@@]1(C)C=CC(=O)C=C1C[C@H]3Cl [ALCLOMETASONE] | 0 | 0 | 0 | 0 | 0 | 0 | 0 | 0 | 0 | 0 | 0 | 0 | 0 | 0
CC(=O)[C@H]1CC[C@H]2[C@@H]3CCC4=CC(=O)CC[C@]4(C)[C@H]3CC[C@]12C [PROGESTERONE] | 0 | 0 | 1 | 0 | 1 | 0 | 0 | 0 | 0 | 4 | 1 | 0 | 0 | 1
CNNCc1ccc(C(=O)NC(C)C)cc1 [PROCARBAZINE] | 0 | 0 | 0 | 0 | 1 | 0 | 0 | 0 | 0 | 1 | 0 | 0 | 0 | 0
CCOCCn1c(N2CCCN(C)CC2)nc2ccccc21 [EMEDASTINE] | 0 | 0 | 0 | 0 | 0 | 0 | 0 | 0 | 0 | 0 | 0 | 0 | 0 | 0
C[C@@H](O)[C@H]1C(=O)N2C(C(=O)O)=C(S[C@@H]3CN[C@H](C(=O)Nc4cccc(C(=O)O)c4)C3)[C@H](C)[C@H]12 | 0 | 1 | 0 | 0 | 1 | 1 | 0 | 0 | 0 | 4 | 0 | 0 | 1 | 0
CCOC(=O)[C@H](CCc1ccccc1)N[C@@H](C)C(=O)N1Cc2ccccc2C[C@H]1C(=O)O | 0 | 0 | 1 | 0 | 0 | 0 | 0 | 0 | 0 | 3 | 1 | 1 | 0 | 0
CC=CC1=C(C(=O)O)N2C(=O)[C@@H](NC(=O)[C@H](N)c3ccc(O)cc3)[C@H]2SC1 [CEFPROZIL] | 0 | 0 | 0 | 0 | 1 | 0 | 0 | 0 | 0 | 1 | 0 | 0 | 0 | 0
O=c1[nH]c(=O)n([C@H]2C[C@H](O)[C@@H](CO)O2)cc1I [IDOXURIDINE] | 0 | 0 | 0 | 0 | 0 | 0 | 0 | 0 | 0 | 0 | 0 | 0 | 0 | 0
